Patent publication US20020091086A1, “Peptides that block viral infectivity and methods of use thereof” (priority 1999, published 2002)
Peptide text beside a SMILES is read from it.

Legend:
[1] = 18 day intraperitoneal toxicity in mice; type: in vivo; details: intraperitoneal 0.01, 0.1 and 1 g per kilo bodyweight and day, 18 days from age 6 days
Method: In this example, the results from several in vivo toxicology studies on small peptides administered in large doses to rodents are presented. In a first experiment, a large single dose of small peptide was delivered to mice and the toxic effects were analyzed. […] In a second experiment, several doses of varying amounts of a small peptide were delivered to mice for almost three weeks. Groups of mice (five mice in each group) were given intraperitoneal injections of GPG-NH2 (0.01, 0.1 and 1 g per kilo bodyweight and day, respectively) starting at an age of 6 days. Daily injections were continued for 18 days. […] In a similar experiment, a four week toxicology study of GPG-NH2 was performed by Scantox A/S in Denmark. GPG-NH2 was given orally to rats at doses up to 1 g per kilo bodyweight per day for twenty eight days.

BSA = target: T1, BSA (Bos taurus, UniProt P02769); experiment: dialysis-based binding assay with 14C-GPG-NH2, BSA; details: dialysis 2 days at 4° C. against 27.5 μM 14C-GPG-NH2; buffer 1.816
T1 construct: purchased Sigma
Method: A dialysis-based binding assay was conducted using a dialysis membrane with a pore size of less than 10 kD. (Slide-A-Lyzer, Pierce). Fifty microliters of a 10 μM stock of the recombinant proteins p24 and gp120 (gifts from the AIDS program, NCIB) and BSA (Sigma) were introduced into separate dialysis membranes and the proteins were dialyzed at 4° C. for 2 days against a 500 ml solution composed of 150 mM NaCl and 50 mM Tris-HCl, pH 7.4 buffer and 27.5 μM of ^14C-GPG-NH2 (Amersham Ltd. UK). Subsequently, ten or five microliter aliquots of the dialyzed p24, gp120, and BSA were removed and mixed with 3 ml of ReadySafe (Beckman) in a scintillation vial. The C^14 was then detected by scintillation counting.

HIV-1 specific protease = HIV-1 specific protease (Human immunodeficiency virus type 1 group M subtype B, UniProt P04585); experiment: activity of the HIV-1 specific protease; type: biochemical
[2] = radioactivity associated with rat plasma proteins, SDS/PAGE; type: in vivo, rats; details: 60 minutes after feeding
Method: The proteins from whole plasma were also analyzed by column chromatography and fractionated and crude protein were separated by sodium dodecyl sulfate polyacrylamide gel (10%) electrophoresis (SDS/PAGE). Rat plasma samples were partially purified with size exclusion ([…], Phamacia) chromatography (0.4×6 cm), in a buffer of 10 mM Tris-HCl pH 8.3 and 50 mM KCl. Eluate was then separated by anionic exchange chromatography by using an increasing stepwise gradient of NaCl in a buffer of 10 mM Tris-HCl pH8.3 (Sepharose CL-6B DEAE, 0.4×6 cm). The eluate was monitored and pooled according to the radioactivity (Ready Safe, Beckman; LKB 1218, Sweden). The protein fractions with strong signal were separated on a 10% SDS-PAGE and were subsequently blotted onto PVDF (polyvinylidene difluoride, BioRad) membrane before being subjected to Edman N-terminal amino acid sequencing (Applied Biosystems Procise Sequencer, USA).
The proteins marked B1-B4 were sequenced and determined to be alpha-1 antitrypsin (Bi), pentaxin (B-2), C-reactive protein (B-3), and B-4 could not be identified. These proteins are all synthesized in the liver. One interpretation is that hydrolyzed GPG-NH2 was reutilized in the liver protein synthesis. […]

Jurkat-tat III cells = experiment: in vitro uptake of 14C-labelled GPG-NH2 into cells; type: in vitro ADME; details: 165 nCi (0.7 μM)
Method: (§1) Additionally, the in vitro uptake of small peptides from the culture medium into the cells was studied in a series of experiments. Accordingly, HUT78, Jurkat-tat III, and MT-2 cells were incubated with ^14C-labelled GPG-NH2 165 nCi (equivalent to 0.7 μM of GPG-NH2). An uptake of the small peptide was observed and between 8% (Jurkat-tat III cells) and 20% (HUT78 cells) of the GPG-NH2 was incorporated in the cells.

HUT78 cells = experiment: in vitro uptake of 14C-labelled GPG-NH2 into cells; type: in vitro ADME; details: 165 nCi (0.7 μM)
Method: as §1

polio viruses = type: cell-based
various cell lines = experiment: ratio of CC50/IC50 in vitro; type: cell-based
Method: (§2) The in vitro 50% cytotoxic concentrations (CC50) of various cell lines was also assessed. Accordingly, different concentrations of GPG-NH2, up to 40 mM, was supplemented into the medium culture of T-cell lines HUT78, H9, CEM-SS, MT-2 and (non) induced ACH-2, as well as, the macrophage derived cell lines […], THP-1 and (non) induced U-1 cells. After 3 days of incubation, the number of cells were counted.

human mononuclear cells = experiment: in vitro proliferative response of human mononuclear cells; type: cell-based; details: 20 μM
Method: Next, the toxicity to normal human lymphomonocytic cells (PBMC) was examined. […] The effect of GPG-NH2 on in vitro proliferative response of human mononuclear cells was also tested.

MT-2 = experiment: cytotoxicity, trypan-blue dye exclusion and cell counting; details: 40 mM, 3 days of culture
Method: as §2

Jurkat-tat III = experiment: as above; details: 40 mM, 3 days of culture
Method: as §2

HUT78 = experiment: as above; details: 40 mM, 3 days of culture
Method: as §2

THP-1 = experiment: cytotoxicity, cell counting; details: 40 mM, 3 days
Method: as §2

H9 = experiment: cytotoxicity, cell counting; details: 40 mM, 3 days
Method: as §2

For `NCC(=O)N1CCC[C@H]1C(=O)NCC(N)=O` [GPG-NH2, glycyl-prolyl-glycine amide] (H-Gly-Pro-Gly-NH2), the “influence on the mice compared to controls” value [1] was “no significant influence”, the “radioactive GPG-NH2 associated with BSA” value (BSA) was 1.674 μCi/ml and the “activity of the HIV-1 specific protease” value (HIV-1 specific protease) was “not to affect”. For the same compound, the “radioactivity covalently associated with plasma proteins” value [2] was “little radioactivity was observed to be covalently associated with proteins”, the “GPG-NH2 incorporated in the cells” value (Jurkat-tat III cells) was 8% and the “GPG-NH2 incorporated in the cells” value (HUT78 cells) was 20%. For the same compound, the “inhibition of polio virus” value (polio viruses) was “failed inhibit either influenza or polio viruses”, the “ratio of CC50/IC50 in vitro” value (various cell lines) was > 10^4 and the “anti-proliferative properties on T cells” value (human mononuclear cells) was “marginal if any direct anti-proliferative properties”. For the same compound, the “function of accessory cells (monocytes and dendritic cells)” value (human mononuclear cells) was “did not affect the function of accessory cells”, the “N- or O-linked glycosylation of the virus protein” value (gp160) was “no effect” and the “inhibition of cell growth” value (MT-2) was about 40%. For the same compound, the “inhibition of cell growth” value (Jurkat-tat III) was about 40%, the “inhibition of cell growth” value (HUT78) was about 40% and the “decrease in cell number” value (THP-1) was “less than 20%”. The “decrease in cell number” value (H9) was “less than 20%”.
